Here are results for one molecule from publication PMC9436767, “Optical control of the β2-adrenergic receptor with opto-prop-2: A cis-active azobenzene analog of propranolol” (iScience, 2022).

The target in series [1] is T1, β2-AR (Homo sapiens, UniProt P07550). The series can be described thus: NanoBiT complementation: β-arrestin2 recruitment to β2-AR, Schild analysis.
Target sequence in this assay (P07550 whole entry): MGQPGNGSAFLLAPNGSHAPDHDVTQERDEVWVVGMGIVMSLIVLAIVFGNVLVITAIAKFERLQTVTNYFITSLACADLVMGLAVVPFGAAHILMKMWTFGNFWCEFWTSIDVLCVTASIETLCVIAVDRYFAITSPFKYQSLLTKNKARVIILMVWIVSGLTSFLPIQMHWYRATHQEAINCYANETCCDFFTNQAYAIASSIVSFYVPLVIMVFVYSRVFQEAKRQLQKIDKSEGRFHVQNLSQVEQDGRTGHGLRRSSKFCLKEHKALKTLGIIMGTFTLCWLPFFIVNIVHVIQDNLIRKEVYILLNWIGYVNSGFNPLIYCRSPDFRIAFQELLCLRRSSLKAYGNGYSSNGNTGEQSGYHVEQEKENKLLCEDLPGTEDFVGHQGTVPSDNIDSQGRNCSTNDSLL
Experimental: (§2) Mixed stable populations of HEK-β2AR-β-arrestin2, or HEK-β2AR-mGs cells were generated by selection in G418 (0.8 mg^−1) and zeocin (200 μg mL^−1) for 7–10 days, in DMEM, supplemented with 10% fetal bovine serum (FBS; Sigma Aldrich).
(§3) The antagonist affinity (KD) was then estimated by a Schild plot of log [CR-1] against log [B] (the antagonist concentration) using the relationship: Log[CR−1]=Log[B]−LogKD.
For series [2], the target named is T1, β2-AR. Put plainly: Kinetic β-arrestin2 recruitment to β2-AR with 360 nm light flashes. Type of series: cell-based. On the set-up: expressed in transfected cells; host or cells: HEK293T, transient (PEI). The note with it: 1 μM with 32 nM isoprenaline; six 5-min cycles of 360 nm flashes. As to the method: It was further explored whether the activity of the β2-AR could be modulated dynamically by treating cells with light (Figure 5). Cells that overexpress a split-nanoluc luciferase biosensor system for βarrestin2 recruitment to the β2-AR were treated with isoprenaline in the presence of Opto-prop-2. A time-dependent activation of the receptor is observed for 10 min after which cells were pulsed with light flashes of 360 nm.
Cells incubated with Opto-prop-2 are depicted in green and magenta before and after illumination, respectively. Data points represent the mean ± SEM of the three experiments, normalized to the luminescence at 10 min as 100%.
HEK293T cells were transiently transfected with 2 μg plasmid DNA per million using linear PEI at a DNA:PEI weight-ratio of 1:6. ([Zarca et al., 2021]) The used DNA plasmids were β2-AR-SmBit (0.4 μg), β-arrestin2-LgBit (0.6 μg) and pcDEF3 (non-coding DNA; 1 μg). The DNA/PEI transfection mix in 150 mM NaCL was vortexed and incubated for 15 min before adding it to a cell suspension with a final concentration of 300,000 cell/mL. Cells were then immediately plated 30,000 cells/well on a white 96-well plate (Greiner). […] After 10 min the protocol setting were switched to treat cells repeadetly with 360 nm light flashes (40 times 200 flashes over 5 min) followed after each 5 min cycle with detection of luminescence, up to a total detection time of 40 min.
Target sequence in this assay (P07550 whole entry): as above
For orientation: Recruitment of arrestin is a read-out of receptor activation apart from second messengers.

The target of series [3] is T1, β2-AR. Put plainly: NanoBiT complementation: mini-Gαs recruitment to β2-AR, Schild analysis.
Target sequence in this assay (P07550 whole entry): as above
Experimental: as §2, §3
Series [4] can be described thus: PSScis and PSStrans by LC analysis. Conditions: LCMS area at isosbestic wavelength. Type of series: physicochemical. As to the method: (§1) Solubility in buffer was explored for all compounds using nephelometry ([Bevan and Lloyd, 2000]) and these studies indicate good solubility of all azobenzene photoswiches up to at least 100 μM (Figure S1). […] For all compounds, 360 nm induces a large change in absorbance spectrum compared with the non-illuminated (dark) compounds (Table 1, Figure 2A, and S1), indicating photoisomerization to the cis-isomer. The absorbance peak (λmax) of Opto-prop-1-3 ranged between 319 and 347 nm for the trans-isomers and between 423 and 429 for the cis-isomers (Table 1), as is typical for azobenzene compounds ([Hauwert et al., 2018]). […] The photochemical conversions were determined by continuous illumination of the Opto-prop compounds with near UV-light (360 ± 20 nm) as 10-mM solutions in DMSO. Based on LCMS analysis, it was observed that all compounds obtained a high level of conversion to the cis-isomer with a photostationary state (PSS) of >88 area % cis-isomer (i.e. PSScis; Table 1). Subsequent back-switching to PSStrans with 434 nm maintained 22–29 area % cis-isomer (Table 1). The thermal relaxation of the PSScis state of the photoswitchable ligands was monitored over time by measuring absorbance at 254 nm. Only minor thermal relaxation to the trans-isomer could be detected at 20°C (not shown). An estimate of the relaxation rate at 20 °C was determined using a method by Priimagi et al. ([Ahmed et al., 2017]), which was performed in Hanks’ balanced salt solution (HBSS) using increased temperatures to enhance the speed of thermal relaxation. The Opto-prop ligands are all very stable as cis-isomer after illumination, with thermal relaxation half-lives of >10 days at 20 °C (See Table 1 and Figure S1).
For the determination of PSScis and PSStrans values by LC analysis (Table 1), a solution of the compound in DMSO (10 mM) was illuminated to PSScis with 360 nm and subsequently to PSStrans with 434 nm. PSS aliquots were withdrawn, diluted with MeCN and subjected to LCMS analysis with the corresponding isosbestic points wavelength: 278, 263 and 308 nm for Opto-prop-1-3, respectively.

A short description of series [5]: Time-resolved light-induced isomerization by 1H NMR and LCMS.
Text: The kinetic properties of light-induced isomer switching were further characterized using these wavelengths. Switching was monitored by ^1H NMR (Figures 2B and 2D) and LCMS (Figures 2C and 2E) analyses in tandem. The ^1H NMR signal of the ortho C-H proton adjacent to the ether function was selected as a clearly resolved signal to quantify the level of isomerization (Figure 2D).
NMR, LC and UV-Vis spectra were plotted in GraphPad Prism 8 and were visualized by fitting the data to a second order polynomial with a smooth function, using 4 neighboring data points. […] For the time-resolved isomerization experiments, integration of the peak areas was performed with Shimadzu and MestreNova software for LC and NMR integration, respectively. The normalized peak areas over time were fitted by non-linear regression in GraphPad Prism 8 using a one-phase exponential model which yields the t1/2 value of the isomerization reaction and the extrapolated PSS (i.e. the asymptote).
The target of series [6] is T1, β2-AR. Put plainly: Conformational β2-AR BRET sensor in HEK293A cells.
Target sequence in this assay (P07550 1-369): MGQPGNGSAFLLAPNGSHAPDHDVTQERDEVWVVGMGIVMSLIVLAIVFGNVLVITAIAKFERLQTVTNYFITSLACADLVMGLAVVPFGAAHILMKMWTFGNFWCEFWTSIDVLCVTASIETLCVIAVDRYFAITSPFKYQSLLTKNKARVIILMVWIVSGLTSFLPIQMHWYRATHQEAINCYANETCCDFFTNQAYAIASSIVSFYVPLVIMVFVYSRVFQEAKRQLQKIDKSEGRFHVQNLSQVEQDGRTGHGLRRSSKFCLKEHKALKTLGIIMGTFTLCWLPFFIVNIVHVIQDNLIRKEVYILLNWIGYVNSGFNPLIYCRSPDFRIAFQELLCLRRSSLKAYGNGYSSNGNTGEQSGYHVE
Experimental: The next day, cells were washed with HBSS and incubated with a 1/1000 stock solution of furimazine. […] Wells pre-incubated with 0.1% DMSO/HBSS control were treated with vehicle control.
Raw BRET ratios were defined as acceptor emission/donor emission.
Antagonist pKB values were calculated using the agonist potency and concentration together with the antagonist IC50 values, using the Cheng-Prusoff equation.
The target in another series is β1-AR (Homo sapiens, UniProt P08588). The series can be described thus: [3H]DHA radioligand displacement on membranes of HEK293T cells expressing β1-AR. The note with it: for Ki: β1-AR.
Chain of β1-AR (P08588 whole entry): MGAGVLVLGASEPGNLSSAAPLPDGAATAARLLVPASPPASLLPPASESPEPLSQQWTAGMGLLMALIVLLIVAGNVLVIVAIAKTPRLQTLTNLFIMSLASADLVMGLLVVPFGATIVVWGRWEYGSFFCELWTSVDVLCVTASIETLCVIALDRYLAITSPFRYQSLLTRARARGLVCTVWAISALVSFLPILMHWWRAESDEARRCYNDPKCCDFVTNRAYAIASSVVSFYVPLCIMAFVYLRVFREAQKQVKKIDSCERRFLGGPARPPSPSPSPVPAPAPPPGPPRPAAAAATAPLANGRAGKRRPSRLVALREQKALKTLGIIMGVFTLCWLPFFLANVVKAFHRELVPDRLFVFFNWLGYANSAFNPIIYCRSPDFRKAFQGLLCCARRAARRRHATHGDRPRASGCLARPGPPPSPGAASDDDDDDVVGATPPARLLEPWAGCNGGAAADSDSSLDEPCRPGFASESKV
Series [7] can be described thus: Cis-to-trans thermal relaxation, Arrhenius extrapolation. In kind it is physicochemical. The note with it: PSScis sample 25 μM in HBSS buffer with 1% DMSO; Arrhenius extrapolation to 20 °C. How it is done:
as §1
Cis-to-trans thermal relaxations were performed in the dark at 25 μM of the PSS360 state of the Opto-prop-1, -2 or -3 in HBSS buffer with 1% DMSO at various temperatures (60°C, 70°C and 80°C). Absorbance was repeatedly measured at 320, 320 and 347 nm for Opto-prop-1, -2 or -3, respectively, with 60 s intervals.

[8] abbreviates: at PSScis, agonist isoprenaline.

Where “and” joins values, the source holds several entries; their conditions need not be identical. Equal values may be shown once.

Experimental for β1-AR: Membranes of HEK293T-cells transiently expressing the receptor of interest were co-incubated with the tritiated β1/β2-AR antagonist dihydroalprenolol ([^3H]DHA, Figure S2 depicts saturation binding experiments), together with increasing concentrations of the competing unlabeled ligand.
Two million HEK293T cells were seeded in a 10cm^2 dish and were transiently transfected the next day with 1 μg human β1-AR or the β2-AR plasmid DNA, 4 μg empty pcDEF3 plasmid DNA and 30 μg linear 25 kDa polyethyleneimine (PEI; Polysciences Warrington, USA) in a 150 mM NaCl solution. […] Two days after transfection, cells were resuspended and washed (3 times) with PBS and pelleted by centrifugation steps at 1500 g. After the final centrifugation step, cell pellets were reconstituted into ice-cold Tris-HCl buffer (15 mM, supplemented with 0.3 mM EDTA and 2 mM MgCl2 at pH7.4) and dounce-homogenised by plunging the pestle 10 times with 1,500 rpm (Tamson, the Netherlands). The homogenates were frozen and thawed twice using liquid nitrogen, after which the membranes were isolated using an ultra-centrifuge L70 at 40,000 g (Beckman Coulter, USA). Cell pellets were then washed and reconstituted in ice-cold 20 mM Tris-HCl buffer supplemented with 250 mM Sucrose at pH 7.4. Finally, the membrane samples where homogenized using a 23-gauge needle, snap-frozen with liquid nitrogen and stored until further experimentation at −80 °C. The protein content was determined using a BCA protein assay kit (Thermo Scientific, USA).
On the day of the experiment 0.25–0.5 μg membranes expressing either the β1-AR or the β2-AR, were co-incubated with [^3H]DHA (Perkin Elmer, USA) and increasing concentrations unlabeled ligand in HBSS buffer (Thermo Scientific, with Ca^2+ and Mg^2+) supplemented with 0.1% BSA for 1 h at 25 °C under gentile agitation. Either a 4 nM or 1 nM concentration of [^3H]DHA was used in combination with membranes expressing either the β1-AR or β2-AR, respectively. Binding reactions were terminated by filtration over a PEI coated GF/C filter (Perkin Elmer) using ice-cold 50 mM Tris-HCl buffer with 500 mM NaCl at pH 7.4. GF/C plates were dried at 52 °C and filter bound [^3H]DHA was quantified by adding 25 μL/well Microscint-O scintillation liquid and counting luminescence using the Wallac Microbeta counter, as described before.
IC50 values were determined by fitting the concentration-dependent displacement of [^3H]DHA by unlabeled ligands, with a three-parameter sigmoidal model in GraphPad Prism. […] Competition binding graphs represent the pooled data of ≥3 experiments, normalized to the fitted top and bottom of the reference sigmoidal displacement curve of unlabeled DHA.

One may read the IC50 as the concentration that inhibits the measured activity by half. A low value points to higher potency. Usually Ki stands for a dissociation constant, usually derived from enzyme kinetics or from competition with a known ligand. A lower Ki goes with higher affinity. At β2-AR [1], `CC(C)NCC(O)COc1cccc(N=Nc2ccccc2)c1` (stereo not shown) [Opto-prop-2] had a Kb of 25.1 nM. At β2-AR [1] (setting [8]), the “slope of the Schild-plot, β-arrestin2 recruitment” value came to 0.9. For the same molecule, the “β2-AR activity (β-arrestin2 recruitment) after 360 nm light flashes” value at β2-AR [2] is “a drop in β2-AR activity is observed”. For the same molecule, the Kb at β2-AR [3] was 25.1 nM. Further, the “slope of the Schild-plot, mini-Gαs recruitment” value at β2-AR [3] (setting [8]) is recorded as 1.2. In series [4] (10 mM in DMSO after illumination with 360 nm), the “PSScis (% cis-isomer)” value is reported as 92.8 ± 0.4 % cis-isomer. The “PSStrans (% cis-isomer)” value in series [4] (10 mM in DMSO, 360 nm then 434 nm) is 26 % cis-isomer and 25.9 ± 0.4 % cis-isomer. In series [5] (1H NMR, 10 mM in DMSO-d6), the “isomerization half-life, 360 nm” value was determined as 4 min and the “isomerization half-life, 434 nm” value was 3 min. The “cis-isomer at PSScis” value in series [5] (1H NMR, 360 nm, 10 mM in DMSO-d6) was determined as 86 mol%. Moreover, the “cis-isomer at PSStrans” value in series [5] (1H NMR, 434 nm, 10 mM in DMSO-d6) turned out to be 20 mol%. In series [5] (LCMS, 360 nm), the “fitted cis-isomer at PSScis” value is 94% and the “isomerization half-life to PSScis” value stood at 4 min. Further, in series [5] (LCMS, 434 nm), the “fitted cis-isomer at PSStrans” value turned out to be 23% and the “isomerization half-life to PSStrans” value worked out at 3 min. Further, at β2-AR [6], the IC50 is 31.6 nM and the Kb is 2 nM. Also, the “fold Ki trans vs PSScis at β1-AR” value at β1-AR (fold difference between Ki of trans and Ki at PSScis) came out at 21 fold. Moreover, at β1-AR (isomer state with higher affinity), the “Active state at β1-AR” value was “cis”. The same molecule had a Ki on β1-AR (pKi PSScis, illuminated to PSScis (360 nm) before experiment) of 200 nM. The molecule also gave a Ki on β1-AR (pKi trans, without prior illumination (trans-isomer)) of 5010 nM. In addition, the “t1/2 20°C (thermal relaxation of cis-isomer)” value in series [7] was over 240 h.
